Test results: patent publication US20050197350A1, “Novel quinoline, tetrahydroquinazoline, and pyrimidine derivatives and methods of treatment related to the use thereof” (TAISHO PHARMACEUTICAL CO., LTD., priority 2003, published 2005)

What follows are compounds tested on MCH receptors (assay: MCH receptor activity class (method not given)). Details: class by percent of control at 10^−7 M or IC50.

Row | SMILES | class
1 | Cc1nc(N[C@H]2CC[C@@H](NC(=O)c3ccc(O)nc3)CC2)nc(N(C)C)c1C [compound 2827] | 3 (Class 3 The value of percent of control at 10^−7 M was more than 60% or the value of IC50 was more than 200 nM.)
2 | Cc1cc(C(=O)N[C@H]2CC[C@@H](Nc3nc(C)c(C)c(N(C)C)n3)CC2)no1 [compound 2828, N-(cis-4-{[4-(dimethylamino)-5,6-dimethylpyrimidin-2-yl]amino}cyclohexyl)-5-methylisoxazole-3-carboxamide] | 2 (Class 2: The value of percent of control at 10^−7 M was from 40% to 60% or the value of IC′50 was from 50 nM to 200 nM.)
3 | Cc1nc(C(=O)N[C@H]2CC[C@@H](Nc3nc(C)c(C)c(N(C)C)n3)CC2)co1 [compound 2830, N-(cis-4-{[4-(dimethylamino)-5,6-dimethylpyrimidin-2-yl]amino}cyclohexyl)-2-methyl-1,3-oxazole-4-carboxamide] | 2 (Class 2: The value of percent of control at 10^−7 M was from 40% to 60% or the value of IC′50 was from 50 nM to 200 nM.)
4 | Cc1ncccc1C(=O)N[C@H]1CC[C@@H](Nc2nc(C)c(C)c(N(C)C)n2)CC1 [compound 2831] | 3 (Class 3 The value of percent of control at 10^−7 M was more than 60% or the value of IC50 was more than 200 nM.)
5 | COc1ccc(C(=O)N[C@H]2CC[C@@H](Nc3nc(C)c(C)c(N(C)C)n3)CC2)c(OC)n1 [compound 2832, N-(cis-4-{[4-(dimethylamino)-5,6-dimethylpyrimidin-2-yl]amino}cyclohexyl)-2,6-dimethoxynicotinamide] | 1 (Class 1: The value of percent of control at 10^−7 M was less than 40% or the value of IC50 was less than 50 nM.)
6 | Cc1nc(N[C@H]2CC[C@@H](NC(=O)c3nccnc3N)CC2)nc(N(C)C)c1C [compound 2833] | 2 (Class 2: The value of percent of control at 10^−7 M was from 40% to 60% or the value of IC′50 was from 50 nM to 200 nM.)
7 | CCOc1ncccc1C(=O)N[C@H]1CC[C@@H](Nc2nc(C)c(C)c(N(C)C)n2)CC1 [compound 2834] | 3 (Class 3 The value of percent of control at 10^−7 M was more than 60% or the value of IC50 was more than 200 nM.)
8 | Cc1nc(N[C@H]2CC[C@@H](NC(=O)c3ccccn3)CC2)nc(N(C)C)c1C [compound 2835] | 3 (Class 3 The value of percent of control at 10^−7 M was more than 60% or the value of IC50 was more than 200 nM.)
9 | Cc1nc(N[C@H]2CC[C@@H](NC(=O)c3cccc(C#N)c3)CC2)nc(N(C)C)c1C [compound 2836, 3-cyano-N-(cis-4-{[4-(dimethylamino)-5,6-dimethylpyrimidin-2-yl]amino}cyclohexyl)benzamide] | 1 (Class 1: The value of percent of control at 10^−7 M was less than 40% or the value of IC50 was less than 50 nM.)
10 | Cc1cccc(C(=O)N[C@H]2CC[C@@H](Nc3nc(C)c(C)c(N(C)C)n3)CC2)c1 [compound 2837, N-(cis-4-{[4-(dimethylamino)-5,6-dimethylpyrimidin-2-yl]amino}cyclohexyl)-3-methylbenzamide] | 1 (Class 1: The value of percent of control at 10^−7 M was less than 40% or the value of IC50 was less than 50 nM.)
11 | Cc1nc(N[C@H]2CC[C@@H](NC(=O)c3cccc(Cl)c3)CC2)nc(N(C)C)c1C [compound 2838, 3-chloro-N-(cis-4-{[4-(dimethylamino)-5,6-dimethylpyrimidin-2-yl]amino}cyclohexyl)benzamide] | 1 (Class 1: The value of percent of control at 10^−7 M was less than 40% or the value of IC50 was less than 50 nM.)
12 | Cc1nc(N[C@H]2CC[C@@H](NC(=O)c3cccc(Br)c3)CC2)nc(N(C)C)c1C [compound 2839, 3-bromo-N-(cis-4-{[4-(dimethylamino)-5,6-dimethylpyrimidin-2-yl]amino}cyclohexyl)benzamide] | 1 (Class 1: The value of percent of control at 10^−7 M was less than 40% or the value of IC50 was less than 50 nM.)
13 | COc1cc(OC)cc(C(=O)N[C@H]2CC[C@@H](Nc3nc(C)c(C)c(N(C)C)n3)CC2)c1 [compound 2840, N-(cis-4-{[4-(dimethylamino)-5,6-dimethylpyrimidin-2-yl]amino}cyclohexyl)-3,5-dimethoxybenzamide] | 1 (Class 1: The value of percent of control at 10^−7 M was less than 40% or the value of IC50 was less than 50 nM.)
14 | Cc1nc(N[C@H]2CC[C@@H](NC(=O)c3cc(C(F)(F)F)cc(C(F)(F)F)c3)CC2)nc(N(C)C)c1C [compound 2841, N-(cis-4-{[4-(dimethylamino)-5,6-dimethylpyrimidin-2-yl]amino}cyclohexyl)-3,5-bis(trifluoromethyl)benzamide] | 1 (Class 1: The value of percent of control at 10^−7 M was less than 40% or the value of IC50 was less than 50 nM.)
15 | Cc1nc(N[C@H]2CC[C@@H](NC(=O)c3ccc(Cl)c(Cl)c3)CC2)nc(N(C)C)c1C [compound 2842, 3,4-dichloro-N-(cis-4-{[4-(dimethylamino)-5,6-dimethylpyrimidin-2-yl]amino}cyclohexyl)benzamide] | 1 (Class 1: The value of percent of control at 10^−7 M was less than 40% or the value of IC50 was less than 50 nM.)
16 | Cc1nc(N[C@H]2CC[C@@H](NC(=O)c3ccc(OC(F)(F)F)cc3)CC2)nc(N(C)C)c1C [compound 2843, N-(cis-4-{[4-(dimethylamino)-5,6-dimethylpyrimidin-2-yl]amino}cyclohexyl)-4-(trifluoromethoxy)benzamide] | 2 (Class 2: The value of percent of control at 10^−7 M was from 40% to 60% or the value of IC′50 was from 50 nM to 200 nM.)
17 | Cc1nc(N[C@H]2CC[C@@H](NC(=O)c3ccc(C#N)cc3)CC2)nc(N(C)C)c1C [compound 2844, 4-cyano-N-(cis-4-{[4-(dimethylamino)-5,6-dimethylpyrimidin-2-yl]amino}cyclohexyl)benzamide] | 1 (Class 1: The value of percent of control at 10^−7 M was less than 40% or the value of IC50 was less than 50 nM.)
18 | Cc1ccc(C(=O)N[C@H]2CC[C@@H](Nc3nc(C)c(C)c(N(C)C)n3)CC2)cc1 [compound 2845, N-(cis-4-{[4-(dimethylamino)-5,6-dimethylpyrimidin-2-yl]amino}cyclohexyl)-4-methylbenzamide] | 1 (Class 1: The value of percent of control at 10^−7 M was less than 40% or the value of IC50 was less than 50 nM.)
19 | Cc1nc(N[C@H]2CC[C@@H](NC(=O)c3ccc(F)cc3)CC2)nc(N(C)C)c1C [compound 2846, N-(cis-4-{[4-(dimethylamino)-5,6-dimethylpyrimidin-2-yl]amino}cyclohexyl)-4-fluorobenzamide] | 1 (Class 1: The value of percent of control at 10^−7 M was less than 40% or the value of IC50 was less than 50 nM.)
20 | Cc1nc(N[C@H]2CC[C@@H](NC(=O)c3ccc(Cl)cc3)CC2)nc(N(C)C)c1C [compound 2847, 4-chloro-N-(cis-4-{[4-(dimethylamino)-5,6-dimethylpyrimidin-2-yl]amino}cyclohexyl)benzamide] | 1 (Class 1: The value of percent of control at 10^−7 M was less than 40% or the value of IC50 was less than 50 nM.)
21 | COc1ccccc1C(=O)N[C@H]1CC[C@@H](Nc2nc(C)c(C)c(N(C)C)n2)CC1 [compound 2848, N-(cis-4-{[4-(dimethylamino)-5,6-dimethylpyrimidin-2-yl]amino}cyclohexyl)-2-methoxybenzamide] | 2 (Class 2: The value of percent of control at 10^−7 M was from 40% to 60% or the value of IC′50 was from 50 nM to 200 nM.)
22 | Cc1nc(N[C@H]2CC[C@@H](NC(=O)c3ccc(Br)cc3)CC2)nc(N(C)C)c1C [compound 2849, 4-bromo-N-(cis-4-{[4-(dimethylamino)-5,6-dimethylpyrimidin-2-yl]amino}cyclohexyl)benzamide] | 1 (Class 1: The value of percent of control at 10^−7 M was less than 40% or the value of IC50 was less than 50 nM.)
23 | Cc1nc(N[C@H]2CC[C@@H](NC(=O)c3ccc(C(F)(F)F)cc3)CC2)nc(N(C)C)c1C [compound 2850, N-(cis-4-{[4-(dimethylamino)-5,6-dimethylpyrimidin-2-yl]amino}cyclohexyl)-4-(trifluoromethyl)benzamide] | 1 (Class 1: The value of percent of control at 10^−7 M was less than 40% or the value of IC50 was less than 50 nM.)
24 | CCOc1ccc(C(=O)N[C@H]2CC[C@@H](Nc3nc(C)c(C)c(N(C)C)n3)CC2)cc1 [compound 2851] | 3 (Class 3 The value of percent of control at 10^−7 M was more than 60% or the value of IC50 was more than 200 nM.)
25 | Cc1cc(C(=O)N[C@H]2CC[C@@H](Nc3nc(C)c(C)c(N(C)C)n3)CC2)ccc1Br [compound 2852, 4-bromo-N-(cis-4-{[4-(dimethylamino)-5,6-dimethylpyrimidin-2-yl]amino}cyclohexyl)-3-methylbenzamide] | 1 (Class 1: The value of percent of control at 10^−7 M was less than 40% or the value of IC50 was less than 50 nM.)
26 | Cc1ccc(C(=O)N[C@H]2CC[C@@H](Nc3nc(C)c(C)c(N(C)C)n3)CC2)cc1F [compound 2853, N-(cis-4-{[4-(dimethylamino)-5,6-dimethylpyrimidin-2-yl]amino}cyclohexyl)-3-fluoro-4-methylbenzamide] | 1 (Class 1: The value of percent of control at 10^−7 M was less than 40% or the value of IC50 was less than 50 nM.)
27 | Cc1cc(C(=O)N[C@H]2CC[C@@H](Nc3nc(C)c(C)c(N(C)C)n3)CC2)ccc1F [compound 2854, N-(cis-4-{[4-(dimethylamino)-5,6-dimethylpyrimidin-2-yl]amino}cyclohexyl)-4-fluoro-3-methylbenzamide] | 1 (Class 1: The value of percent of control at 10^−7 M was less than 40% or the value of IC50 was less than 50 nM.)
28 | CCc1cccc(C(=O)N[C@H]2CC[C@@H](Nc3nc(C)c(C)c(N(C)C)n3)CC2)c1 [compound 2855, N-(cis-4-{[4-(dimethylamino)-5,6-dimethylpyrimidin-2-yl]amino}cyclohexyl)-3-ethylbenzamide] | 2 (Class 2: The value of percent of control at 10^−7 M was from 40% to 60% or the value of IC′50 was from 50 nM to 200 nM.)
29 | Cc1nc(N[C@H]2CC[C@@H](NC(=O)c3cccc(OC(F)(F)F)c3)CC2)nc(N(C)C)c1C [compound 2856] | 1 (Class 1: The value of percent of control at 10^−7 M was less than 40% or the value of IC50 was less than 50 nM.)
